From the supplement of paper PMC10307832

Columns and labels:
Assay in all cases: relative viability (nuclei count vs DMSO), 5 days (fraction); higher = more cells survive
Tosedostat + Dasatinib = compound: CC(C)C[C@@H](C(=O)N[C@H](C(=O)OC1CCCC1)c1ccccc1)[C@H](O)C(=O)NO [Tosedostat] + Cc1nc(Nc2ncc(C(=O)Nc3c(C)cccc3Cl)s2)cc(N2CCN(CCO)CC2)n1 [Dasatinib] (partner 0.075 µM)
Procedure, shortened: (§1)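 Lung cancer cell lines, seeded in 1536-well plates, were treated the following day by pin tool with a single drug or with five library-drug doses (not always all listed) in √10 steps on top of a fixed anchor-drug dose. Cells were fixed and nuclei stained in one step after 5 days, and nuclei were counted. Relative viability is the nuclei count for treated wells divided by that for vehicle wells, reported as medians of duplicate plates.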

[1] = compound: CC1=NN=C(O1)C2=NN=C(C=C2)N3CCC(CC3)OC4=C(C=CC(=C4)F)Cl + N=C(N)NC(=N)NCCc1ccccc1 [Phenformin] (partner 250 µM)
Procedure, shortened: as §1

Tosedostat + Alpelisib = compound: CC(C)C[C@@H](C(=O)N[C@H](C(=O)OC1CCCC1)c1ccccc1)[C@H](O)C(=O)NO [Tosedostat] + Cc1nc(NC(=O)N2CCC[C@H]2C(N)=O)sc1-c1ccnc(C(C)(C)C(F)(F)F)c1 [Alpelisib] (partner 2 µM)
Procedure, shortened: as §1

[2] = compound: CC1=NN=C(O1)C2=NN=C(C=C2)N3CCC(CC3)OC4=C(C=CC(=C4)F)Cl + COc1cc2c(Oc3ccc(NC(=O)C4(C(=O)Nc5ccc(F)cc5)CC4)cc3F)ccnc2cc1OCCCN1CCOCC1 [Foretinib] (partner 0.25 µM)
Procedure, shortened: as §1

Row | Cell Line | relative viability (Tosedostat + Dasatinib; first compound 0.02 µM) | relative viability (Tosedostat + Dasatinib; first compound 0.06325 µM) | relative viability (Tosedostat + Dasatinib; first compound 0.2 µM) | relative viability (Tosedostat + Dasatinib; first compound 0.6325 µM) | relative viability (Tosedostat + Dasatinib; first compound 2 µM) | relative viability ([1]; first compound 0.253 µM) | relative viability ([1]; first compound 0.8 µM) | relative viability ([1]; first compound 2.53 µM) | relative viability ([1]; first compound 8 µM) | relative viability (Tosedostat + Alpelisib; first compound 0.02 µM) | relative viability (Tosedostat + Alpelisib; first compound 0.06325 µM) | relative viability (Tosedostat + Alpelisib; first compound 0.2 µM) | relative viability (Tosedostat + Alpelisib; first compound 0.6325 µM) | relative viability (Tosedostat + Alpelisib; first compound 2 µM) | relative viability ([2]; first compound 0.253 µM) | relative viability ([2]; first compound 0.8 µM) | relative viability ([2]; first compound 2.53 µM) | relative viability ([2]; first compound 8 µM)
1 | SK-MES-1 | 0.285 | 0.237 | 0.329 | 0.213 | 0.229 | 0.58 | 0.532 | 0.475 | 0.414 | 0.814 | 1 | 0.832 | 0.802 | 0.689 | 0.824 | 0.835 | 0.939 | 0.855
2 | SW 1573 | 0.572 | 0.36 | 0.368 | 0.317 | 0.314 | 0.371 | 0.329 | 0.351 | 0.363 | 0.578 | 0.76 | 0.641 | 0.588 | 0.567 | 0.99 | 0.86 | 0.909 | 0.569
